In ChEMBL document CHEMBL1141990, “Effects of suberoylanilide hydroxamic acid and trichostatin A on induction of cytochrome P450 enzymes and benzo[a]pyrene DNA adduct formation in human cells” (2005):

Key:
Format in all cases: functional
[1] = system: MCF7; assay: Average fold change in expression of CYP1A1 after treatment with compound of concentration 0.01 mM in human MCF-7 cells
[2] = system: MCF7; assay: Average fold change in expression of CYP1B1 after treatment with compound of concentration 1 mM in human MCF-7 cells
[3] = system: MCF7; assay: Average fold change in expression of CYP1A1 after treatment with compound of concentration 0.1 mM in human MCF-7 cells
[4] = system: MCF7; assay: Average fold change in expression of CYP1A1 after treatment with compound of concentration 1 mM in human MCF-7 cells
[5] = system: MCF7; assay: Average fold change in expression of CYP1B1 after treatment with compound of concentration 0.01 mM in human MCF-7 cells
[6] = system: MCF7; assay: Average fold change in expression of CYP1B1 after treatment with compound of concentration 0.1 mM in human MCF-7 cells
[7] = system: MCF7; assay: Average fold change in expression of CYP1A1 at 1 mM after co-treatment with compound and TSA in human MCF-7 cells
[8] = system: MCF7; assay: Average fold change in expression of CYP1A1 at 1 mM after co-treatment with compound and SAHA in human MCF-7 cells
[9] = system: MCF7; assay: Mean B[a]P DNA binding at 4 uM after co-treatment with compound and TSA (2 uM) in human MCF-7 cells
[10] = system: MCF7; assay: Average fold change in expression of CYP1B1 after co-treatment with compound of concentration 1 mM in human MCF-7 cells
[11] = system: MCF7; assay: Average fold change in expression of CYP1B1 at 1 mM after co-treatment with compound and TSA in human MCF-7 cells
[12] = system: MCF7; assay: Average fold change in expression of CYP1A1 after co-treatment with compound of concentration 1 mM in human MCF-7 cells
[13] = system: MCF7; assay: Average fold change in expression of CYP1B1 at 1 mM after co-treatment with compound and SAHA in human MCF-7 cells
[14] = system: MCF7; assay: Mean B[a]P DNA binding at 4 uM in human MCF-7 cells
[15] = system: MCF7; assay: Mean B[a]P DNA binding at 4 uM after co-treatment with compound and SAHA (2 uM) in human MCF-7 cells

SMILES: O=C(CCCCCCC(=O)Nc1ccccc1C(=O)NO)Nc1ccccc1
- Fold change [1]: 0.77
- Fold change [2]: 1.58
- Fold change [3]: 2.86
- Fold change [4]: 0.98
- Fold change [5]: 1.1
- Fold change [6]: 1.62

SMILES: CC(/C=C/C(=O)NO)=C\[C@@H](C)C(=O)c1ccc(N(C)C)cc1 [TRICHOSTATIN]
- Fold change [1]: 0.77
- Fold change [2]: 0.17
- Fold change [3]: 0.81
- Fold change [4]: 3.1
- Fold change [5]: 1.29
- Fold change [6]: 1.57

SMILES: c1ccc2c(c1)cc1ccc3cccc4ccc2c1c34 [BENZO[DEF]CHRYSENE]
- Fold change [7]: 8.77
- Fold change [1]: 1.85
- Fold change [8]: 22.92
- Fold change [2]: 4.35
- Activity [9]: 54.15 pmol adducts/mg DNA
- Fold change [10]: 4.39
- Fold change [3]: 3.69
- Fold change [11]: 1.02
- Fold change [4]: 25.24
- Fold change [12]: 25.55
- Fold change [13]: 2.4
- Activity [14]: 34.75 pmol adducts/mg DNA
- Fold change [5]: 1.36
- Activity [15]: 52.18 pmol adducts/mg DNA
- Fold change [6]: 1.7
